What was measured:
[1] = system: immunopotentiation and anti-tumor effects; settings: cited from earlier work
IgE = settings: patients with atopic asthma; cited from earlier work
[2] = system: spleen dendritic cells (CD45RB/CD11c); experiment: Analysis of dendritic cells in spleen of administered mice by flow cytometry; type: in vivo, BALB/c mice; settings: 2 μg/mouse intraperitoneal, after 3 days
Protocol: Saline, α-GalCer, Lipo-(−) or Lipo-αGC (2 μg/mouse) was intraperitoneally administered in BALB/c mice, and after 3 days, the spleen was removed. Collagenase D (1 mg/mL, Roche) was injected into the spleen, which was then incubated in the CO2 incubator for 45 minutes. Subsequently, cells were collected from the spleen, suspended in 3 mL of HistoDenz (14.1%, SIGMA-Aldrich), and then the X-VIVO 15 medium (CAMBREX Bio Science Walkerville, Inc.) containing 50 μM 2-mercaptoethanol (2ME) was overlaid thereon. After centrifuging at 1,500 rpm for 5 minutes, the cells in the intermediate layer were collected. The cells were washed with the X-VIVO 15 medium containing 50 μm 2ME and 10% FCS, and suspended in phosphate buffered saline (PBS) containing 0.5% FCS. Biotinylated anti-CD3, -CD11b, -CD19, -CD49b, -Gr-1, -TER-119 and -B220 antibodies (all from BD Bioscience Pharmingen) were added to the cell suspension. The cells were incubated at 10° C. for 20 minutes, then washed once with PBS containing 0.5% FCS, and subsequently streptoavidin (SA)-conjugated magnetic beads (Miltenyi) were added thereto. […] The resulting cells were stained with PE-labeled anti-CD11c antibody (BD Bioscience Pharmingen) and APC-labeled anti-CD45RB antibody (BD Bioscience Pharmingen), and analyzed by flow cytometry. […]

NKT cells = settings: cited from earlier work
antibody production [3] = experiment: In vivo antibody production system using BDF1 mice; settings: 2 μg/mouse intraperitoneal, days 0, 14, 55 and 64
Protocol: Saline, α-GalCer, Lipo-(−) or Lipo-αGC (2 μg/mouse) was intraperitoneally administered in BDF1 mice (C57BL/6×DBA/2F1) (5 mice/group), after 3 days (day 0), which were primarily immunized with DNP-OVA and alum, and further the mice was boosted with DNP-OVA alone on the 55th day (day 55) after the primary immunization. On days 0, 14, 55 and 64, the blood was collected from the orbital venous plexus, and antibody titers of ant-DNP-IgE, anti-DNP-IgG1, anti-DNP-IgG2a, and the levels of total IgE, total IgG1 and total IgG2a in the plasma were measured by ELISA.

spleen whole cells = experiment: Cytokine production by Lipo-αGC in spleen whole cells; type: cell-based, C57BL/6 mouse
Protocol: (§1) Spleen whole cells at 2×10^5 from C57BL/6 mouse were suspended in 200 μL of 10% fetal calf serum (FCS)-containing RPMI medium to which 100 ng/mL Lipo-(−), Lipo-αGC or α-galactosyl ceramide aqueous solution (α-GalCer) had been added, then the cell suspension was added to a 96-well U bottom culture plate, and cultured in the incubator containing 5% CO2 at 37° C. for 2 days. The levels of IFN-γ, IL-4 and IL-10 produced in the culture supernatant were measured by ELISA (FIG. 7 upper panels). The levels of IFN-γ and IL-4 were equivalent in Lipo-αGC group and αGalCer group, but the level of IL-10 in the Lipo-α group was 5 times higher than that in the α-GalCer group. When the same experiments were performed in the presence of anti-CD1d neutralization antibody (1B1, BD Bioscience PharMingen) at a final concentration of 10 μg/mL or using spleen whole cells from Vα14-NKT cell-deficient mouse (C57BL/6 background), IFN-γ, IL-4 and IL-10 in the culture supernatant were not detected (FIG. 7, lower panels).

antibody production [4] = experiment: In vivo antibody production system using IL-10-deficient mice; design: species or system IL-10-deficient mice with C57BL/6 background; settings: 2 μg/mouse intraperitoneal 3 days before immunization, day 14
Protocol: Saline, α-GalCer, Lipo-(−) or Lipo-αGC (2 μg/mouse) was intraperitoneally administered in C57BL/6 mice (5 mice/group), after 3 days, which were primarily immunized with DNP-OVA and alum. On the 14th day after the primary immunization, the blood was collected from the orbital venous plexus, and antibody titers of ant-DNP-IgG1, anti-DNP-IgE and anti-DNP-IgG2a in the plasma were measured by ELISA. […] The same experiment was performed using the IL-10-deficient mice with C57BL/6 background.

type I diabetes model = settings: administered to NOD mice; cited from earlier work
IgE antibody production [5] = settings: same experiment, mice deleting the Vα14-NKT cells; cited from earlier work
spleen CD4+ T cells = experiment: T cell activation ability using BDF1 mice (MTT proliferation of spleen CD4+ T cells); type: cell-based; settings: 2 μg/mouse intraperitoneal, all DNP-OVA concentrations examined, 48 hours
Protocol: Saline, α-GalCer, Lipo-(−) or Lipo-αGC (2 μg/mouse) was intraperitoneally administered in BDF1 mice, after 3 days, which were primarily immunized with DNP-OVA and alum. After 7 days, the spleen was removed, and CD4^+ T cells were prepared using magnetic microbeads (Miltenyi). Subsequently, antigen presenting cells were prepared by irradiating spleen whole cells from the normal BDF1 mouse with radiation of 20 Gy. The CD4^+ T cells at 2×10^5 and the antigen presenting cells at 2×10^5 pulsed with DNP-OVA suspended in 200 μL of the medium were placed in one well of the 96-well U bottom culture plate, and cultured in the incubator containing 5% CO2 at 37° C. After 48 hours, cell proliferation was assayed by MTT method (Promega #G4000).

[6] = system: spleen whole cells from Vα14-NKT cell-deficient mouse; experiment: Cytokine production in spleen whole cells from Vα14-NKT cell-deficient mouse; type: cell-based, Vα14-NKT cell-deficient mouse (C57BL/6 background); settings: 100 ng/mL, 2 days
Protocol: as §1

IgE antibody production [7] = settings: administered to C57BL/6 mice; cited from earlier work
spleen CD11c+ DC = experiment: In vitro activity of ligand-containing liposome for dendritic cells: cytokine production; type: cell-based, BALB/c or C57BL/6 mouse; settings: liposome composition 1 μg/mL, 48 hours, ELISA
Protocol: Collagenase D (1 mg/mL, Roche) was injected into spleen from BALB/c or C57BL/6 mouse, which was then incubated in a CO2 incubator for 45 minutes. Subsequently, cells were collected from the spleen, suspended in 3 mL of HistoDenz (14.1%, SIGMA), and then X-VIVO 15 (Takara Bio) containing 50 μM 2-mercaptoethanol (2ME) was overlaid thereon. After centrifuging at 1,500 rpm for 5 minutes, the cells in an intermediate layer were collected and incubated in X-VIVO 15 medium containing 50 μM 2ME, 0.5% fetal calf serum and 20 ng/mL rmGM-CSF (Pharmingen) in the CO2 incubator for one and a half hours. After pipetting gently, the suspended cells were removed, the X-VIVO 15 medium containing 50 μM 2ME, 0.5% fetal calf serum and 20 ng/mL rmGM-CSF (Pharmingen) was added, and the cells were incubated in the CO2 incubator for 18 hours. The suspended cells were collected, and the cells bound to anti-CD11c antibody-magnetic microbeads (Miltenyi) were collected to render spleen CD11c^+ DC. The CD11c^+ DC at 1×10^4 cells were suspended in 200 μL of RPMI medium containing 10% fetal calf serum in a 96-well round bottom microtiter plate, the liposome composition at a final concentration of 1 μg/mL was added thereto, and the plate was incubated in the incubator containing 5% CO^2 at 37° C. After 48 hours, culture supernatants were collected, and levels of IFN-α, IL-10 and IL-12 were measured by ELISA (FIGS. 1 and 2). The levels of IL-10 and IFN-α were high whereas the levels of IL-12 were low in Lipo-β and Lipo-Imq groups. Conversely, in Lipo-β-CpG and Lipo-Imq-CpG groups, the levels of IL-10 and IFNα were low whereas the levels of IL-12 were high. […] In the same evaluation method, the production levels of IL-10 in CD11c^+ DC by Lipo-Imq-βGC were measured.

[8] = in the presence of anti-CD1d neutralization antibody 10 μg/mL

Sequence of IgE (P01854 1-425 limits assumed): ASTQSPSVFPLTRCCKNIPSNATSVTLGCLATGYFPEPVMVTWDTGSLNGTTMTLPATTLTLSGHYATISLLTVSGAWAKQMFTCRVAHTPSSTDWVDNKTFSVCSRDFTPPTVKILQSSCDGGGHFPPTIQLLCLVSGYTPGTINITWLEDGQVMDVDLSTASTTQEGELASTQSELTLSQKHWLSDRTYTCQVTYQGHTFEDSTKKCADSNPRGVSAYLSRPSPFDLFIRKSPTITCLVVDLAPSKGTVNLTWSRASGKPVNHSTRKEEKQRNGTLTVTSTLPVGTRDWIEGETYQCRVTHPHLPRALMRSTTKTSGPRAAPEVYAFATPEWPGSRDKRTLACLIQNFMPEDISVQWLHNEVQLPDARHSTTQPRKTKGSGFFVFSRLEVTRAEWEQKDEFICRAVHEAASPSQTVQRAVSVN

## β-glycosyl ceramide
[1]
  activity compared with immunopotentiation and anti-tumor effects of α-galactosyl ceramide compound: much lower activity

## rhuMAb-E25: humanized anti-IgE antibody (Genentech Inc.)
IgE
  effectiveness in clinical trials: highly effective

## CCCCCCCCCCCCCCCCCCCCCCCCCC(=O)N[C@@H](CO[C@H]1O[C@H](CO)[C@H](O)[C@H](O)[C@H]1O)[C@H](O)[C@H](O)CCCCCCCCCCCCCC [α-GalCer, α-Galactosyl ceramide]
[2]
  number of CD45RBlowCD11chigh cells in the spleen: more than in the mouse administered with Lipo-αGC
  ratio of CD45RBhighCD11clow cells versus ratio of CD45RBlowCD11chigh cells: reversed
NKT cells
  cytokine production of both IFN-γ and IL-4: induces
Antibody production [3]
  changes of total IgG1, Lipo-αGC group versus α-GalCer or Lipo-(−) group: nearly equivalent
  changes of total IgG2a, Lipo-αGC group versus α-GalCer or Lipo-(−) group: nearly equivalent
Spleen whole cells; 100 ng/mL, 2 days, ELISA
  level of IFN-γ in culture supernatant, Lipo-αGC group versus αGalCer group: equivalent
  level of IL-4 in culture supernatant, Lipo-αGC group versus αGalCer group: equivalent
Spleen whole cells; [8]
  IFN-γ in the culture supernatant: not detected
  IL-4 in the culture supernatant: not detected
  IL-10 in the culture supernatant: not detected
Antibody production [4]
  inhibitory effect on the antibody production: no inhibitory effect
Type I diabetes model
  symptoms in type I diabetes model: symptomatic improvement was observed
IgE antibody production [5]
  production of IgE antibody: not inhibited
Spleen CD4+ T cells
  proliferation of CD4+ T cells in response to DNP-OVA: highly proliferated
[6]
  IFN-γ in the culture supernatant: not detected
  IL-4 in the culture supernatant: not detected
  IL-10 in the culture supernatant: not detected
IgE antibody production [7]
  production of IgE antibody induced by DNP-OVA and alum: inhibited

## ceramide β-D-galactoside [β-GalCer]
[1]
  activity compared with immunopotentiation and anti-tumor effects of α-galactosyl ceramide compound: much lower activity
Spleen CD11c+ DC
  level of IFN-α in culture supernatant: not detected or was very low
  level of IL-10 in culture supernatant: not detected or was very low
  level of IL-12 in culture supernatant: not detected or was very low
